Measurements reported in patent publication US6620792B1, “Pharmaceutical compositions containing monosialoganglioside GM1 or derivative thereof suitable for the treatment of parkinson's disease” (Fidia S.p.A., priority 1992, dated 2003).

What was measured:
cerebellar granule cells = assay: TOPA neurotoxicity in cerebellar granule cell cultures, MTT assay; assay type: cell-based; conditions: for Neuronal survival (%): control cultures = 100%
Procedure: Granular cell cultures were obtained from 8-day rat cerebella and cultured (3×10^6 cells) on plates coated with poly-L-lysine substrate according to Skaper et al. (Skaper S. D. et al.: “Culture and use of primary and clonal neural cells”, Methods in Neurosciences, Ed. by P. M. Conn, Vol. 2, pp. 17-33, Academic Press, Orlando, 1990).
Twenty-four hours later, cytosine arabinoside (10 μM) was added to inhibit non-neuronal proliferation. Cerebellar granule cells were used 10-12 days later without changing the medium.
Cells were incubated with TOPA either for 40 minutes (100 μM acute exposure) or for 24 h (10 μM prolonged exposure).
Treatment with GM1, AGF2, AGF4 (100 μM) and LIGA 20 (1-30 μm) was carried out as follows:
(§1) 2-hour pretreatment before acute incubation with TOPA;
(§2) cotreatment only with LIGA 20 before acute incubation with TOPA;
(§3) pretreatment with/without cotreatment before (100 μM for 2 h) and/or during (100 μM for 24 h) prolonged incubation with TOPA. TOPA cytotoxicity was determined by evaluating cellular survival, and more precisely:
MTT colorimetric assay of cerebellar neurons, as described by Mosmann (Mosmann T.: “Rapid colorimetric assay for cellular growth and survival: application to proliferation and cytotoxicity assays”, J. Immunol. Meth., 65, 55-63, 1983).
(§4) Cytotoxicity is expressed as per cent cellular survival.
The results of the two tests (in triplicate) were analysed statistically according to Duncan's test. A brief description of same is reported below:
In FIG. 3 the dose-dependent protective effect of LIGA20 against TOPA-induced death of cultured cerebellar granule cells is represented. Cells were exposed concurrently to 100 μM TOPA and 1-30 μM LIGA20 or 200 μM GM1 in Locke's solution for 45 minutes (24° C.), washed and returned to their original medium. Survival was assessed 24 h later by the MTT method. Means±S.E.M. (n=9, 3 experiments). TOPA ( ), LIGA 20 ( ), GM1 ( ).
In vitro granule cells at the 11th day were incubated as indicated above. In the 40-minute exposure to TOPA, GM1 (100 μM) was used in 2-h pretreatment only. In the […] exposure to TOPA, GM1 (100 μM) was used either in 2-h pretreatment only or in 2-h pretreatment and in cotreatment with TOPA. The values are expressed with reference to the corresponding control cultures (=100%) and are an average (±S.D.) of two determinations, each being carried out in triplicate.

[1] = test system: mesencephalic dopaminergic neurons; assay: TOPA neurotoxicity in mesencephalic dopaminergic neuron cultures, TH immunofluorescence; assay type: cell-based, rat
Procedure: Mesencephalic neuron cultures were prepared according to Dal Toso et al. (Dal Toso et al.: “Development and survival of neurons in dissociated fetal mesencephalic serum-free cell cultures: I. Effects of cell density and of an adult mammalian striatal-derived neuronotrophic factor (SDNF)”, J. Neurosci., 8 (3) 733-745, 1988) from the mesencephalic tegmentum of 14.5-15 days' rat embryos.
Neurons (0.75×10^6) were plated on a poly-L-ornithine substrate in 12-well (25 mm dia. each) clusters.
Cultures were used between the fourth and the sixth day without changing the medium. […]
as §1, §2, §3
TH immunofluorescence (specific for tyrosine hydroxylase) in mesencephalic dopaminergic neurons, as described by Berger et al. (Berger B. et al.: “Long-term development of mesencephalic dopaminergic neurons of mouse embryos in dissociated primary cultures: morphological and histochemical characteristics”, Neurosci., 7, 193-205, 1982);
as §4
The results of the two tests (in triplicate) were analysed statistically according to Duncan's test.

In the case of NC(Cc1cc(O)c(O)cc1O)C(=O)O (stereo not drawn) [TOPA, 6-hydroxy-dopa, reference compound], the “Neuronal survival (%)” value (cerebellar granule cells; TOPA 10 μM alone, 24-h exposure) is reported as 17.1 ± 1.4%, the “Neuronal survival (%)” value (cerebellar granule cells; TOPA 100 μM alone, 40-minute exposure) is reported as 22 ± 2.0% and the “No. of TH+ cells” value ([1]; TOPA 10 μM alone for 24 h, average ± S.D., control 244 ± 20) is reported as 62 ± 8 (a).

In the case of N-dichloroacetyl lyso GM1 [LIGA20], the EC50 (cerebellar granule cells; cotreatment with 100 μM TOPA for 45 minutes, 1-30 μM LIGA20, MTT 24 h later (FIG. 3), read-out: ED50 of protection against the acute toxicity of TOPA) is reported as ~9 µM and the “TH+ cells (% control)” value ([1]; 30 μM LIGA20 cotreatment with 100 μM TOPA for 45 minutes, counted 24 h later, mean ± S.E.M., no drug 5.2 ± 1.1) is reported as 83.9 ± 4.2 % control.

B1: BDNF: brain-derived neurotrophic factor (protein, UniProt P23560 19-247, looked up)
Neurotrophic factor BDNF …: APMKEANIRGQGGLAYPGVRTHGTLESVNGPKAGSRGLTSLADTFEHVIEELLDEDQKVRPNEENNKDADLYTSRVMLSSQVPLEPPLLFLLEEYKNYLDAANMSMRVRRHSDPARRGELSVCDSISEWVTAADKKTAVDMSGGTVTVLEKVPVSKGQLKQYFYETKCNPMGYTKEGCRGIDKRHWNSQCRTTQSYVRALTMDSKKRIGWRFIRIDTSCVCTLTIKRGR
B1 was tested, and the “neuroprotective activity alone against TOPA-induced neurotoxicity” value ([1]; BDNF alone at 1 ng/ml) was “no neuroprotective activity of their own”.
